In US6756210B2, “Linoleic acid diol and glucuronide conjugate levels as diagnostic markers of disorders of abnormal regulation of cytochrome P450 metabolism of unsaturated fatty acids” (The Regents of the University of California, priority 2001, dated 2004):
“And” between values parts separate entries of the source, which are not always exact repeats. Equal values may be shown once.

Experiments:
WKY rats = assay: Systolic blood pressure in WKY rats (tail cuff); format: in vivo, rat; conditions: single 3 mg/kg dose
Text: (§1) Animals. Male SHR and WKY rats 3-13 wks of age were purchased from Charles River Laboratories (Wilmington, Mass.) and housed in a controlled environment with 12 hr light/dark cycles and fed standard laboratory chow for 3 days before euthanasia. All animal use was approved by the University of California San Francisco Committee on Animal Research and followed the National Institutes of Health guidenlines for the care and use of laboratory animals. For isolation of kidney subcellular fractions, rats were anesthetized with methoxyflurane, the abdominal cavities were opened, and the kidneys were perfused with ice-cold saline. Perfused kidneys were rapidly removed, the cortex and medulla dissected out and immersed in liquid nitrogen. All tissue was stored at −80° C. until preparation of microsomes. In some cases WKY and SHR rats were housed in metabolic cages for up to three days and urine was collected over triphenylphosphine in 24 hr intervals. The urine volume was noted and aliquots were stored at −80° C. prior to extraction and quantitation of DHETs and EETs. […] Systolic blood pressure was measured at room temperature by a photoelectric tail cuff system (Model 179, IITC, Inc., Woodland Hills, Calif.) for up to four days following the dose of inhibitor. Blood pressures are reported as the average of three separate readings over a 30 min period. […]

mEH = molecular target: T1, mEH (Rattus norvegicus, UniProt P07687); conditions: previous studies, Morisseau 1999; cited from earlier work
T1 sequence (P07687 1-455): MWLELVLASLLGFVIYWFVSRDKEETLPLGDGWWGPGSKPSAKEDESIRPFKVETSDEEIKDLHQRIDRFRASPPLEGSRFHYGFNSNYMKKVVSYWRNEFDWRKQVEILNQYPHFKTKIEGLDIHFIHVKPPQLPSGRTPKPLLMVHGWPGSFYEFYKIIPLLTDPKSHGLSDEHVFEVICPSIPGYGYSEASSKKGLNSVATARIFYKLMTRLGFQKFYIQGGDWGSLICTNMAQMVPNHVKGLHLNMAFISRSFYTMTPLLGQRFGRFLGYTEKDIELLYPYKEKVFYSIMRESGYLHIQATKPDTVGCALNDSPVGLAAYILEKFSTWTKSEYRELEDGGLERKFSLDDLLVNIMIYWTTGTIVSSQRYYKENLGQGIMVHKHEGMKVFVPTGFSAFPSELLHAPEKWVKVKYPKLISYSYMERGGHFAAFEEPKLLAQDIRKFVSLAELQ

[1] = test system: CYP epoxygenase or -hydroxylase; assay: Renal microsomal arachidonic acid metabolism (CYP epoxygenase, hydroxylase); format: biochemical, rat; set-up: dose or concentration left out as unconfirmed
Protocol: Renal microsomal arachidonic acid metabolism. Microsomes, cytosol, and S9 fractions were prepared from the renal cortex or outer medulla samples from a single animal as described previously (Kroetz, D. L. et al. Mol Pharmacol 52, 362-372 (1997), Su, P. et al. Am J Physiol 275, R426-438 (1998)). Reaction conditions for the in vitro determination of arachidonic acid epoxygenase activity, metabolite extraction and HPLC analysis were described in detail elsewhere (Su, P. et al. Am J Physiol 275, R426-438 (1998)).

SHR = assay: Systolic blood pressure in SHR (tail cuff); format: in vivo, rat; conditions: 6 hr after single dose (3 mg/kg DCU or equimolar)
Text: as §1

Human sEH (HsEH) = molecular target: T2, Human sEH (HsEH) (Homo sapiens, UniProt P34913); assay: Inhibition of recombinant human sEH (HsEH); format: biochemical; conditions: Table 1; HsEH 0.26 μM
T2 sequence (P34913 1-555): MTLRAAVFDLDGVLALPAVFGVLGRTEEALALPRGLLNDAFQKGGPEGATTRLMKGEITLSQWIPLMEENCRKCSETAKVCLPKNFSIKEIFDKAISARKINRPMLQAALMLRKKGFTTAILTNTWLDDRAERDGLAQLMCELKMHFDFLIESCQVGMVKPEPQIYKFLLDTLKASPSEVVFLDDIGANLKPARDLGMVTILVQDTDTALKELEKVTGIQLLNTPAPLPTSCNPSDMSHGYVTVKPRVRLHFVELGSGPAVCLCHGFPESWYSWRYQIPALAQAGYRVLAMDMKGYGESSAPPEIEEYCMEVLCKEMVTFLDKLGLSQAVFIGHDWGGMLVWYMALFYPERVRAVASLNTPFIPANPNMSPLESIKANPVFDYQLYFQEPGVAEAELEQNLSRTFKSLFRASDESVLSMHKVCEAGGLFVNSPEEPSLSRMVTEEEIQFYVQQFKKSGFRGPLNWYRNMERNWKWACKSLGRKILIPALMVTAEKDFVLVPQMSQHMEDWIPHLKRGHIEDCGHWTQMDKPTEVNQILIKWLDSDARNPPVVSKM

[2] = molecular target: T3, recombinant mouse sEH (MsEH) (Mus musculus, UniProt P34914); assay: Inhibition of recombinant mouse sEH (MsEH); format: biochemical; conditions: Table 1; MsEH 0.13 μM; read-out: Mouse sEH IC50
T3 sequence (P34914 1-554): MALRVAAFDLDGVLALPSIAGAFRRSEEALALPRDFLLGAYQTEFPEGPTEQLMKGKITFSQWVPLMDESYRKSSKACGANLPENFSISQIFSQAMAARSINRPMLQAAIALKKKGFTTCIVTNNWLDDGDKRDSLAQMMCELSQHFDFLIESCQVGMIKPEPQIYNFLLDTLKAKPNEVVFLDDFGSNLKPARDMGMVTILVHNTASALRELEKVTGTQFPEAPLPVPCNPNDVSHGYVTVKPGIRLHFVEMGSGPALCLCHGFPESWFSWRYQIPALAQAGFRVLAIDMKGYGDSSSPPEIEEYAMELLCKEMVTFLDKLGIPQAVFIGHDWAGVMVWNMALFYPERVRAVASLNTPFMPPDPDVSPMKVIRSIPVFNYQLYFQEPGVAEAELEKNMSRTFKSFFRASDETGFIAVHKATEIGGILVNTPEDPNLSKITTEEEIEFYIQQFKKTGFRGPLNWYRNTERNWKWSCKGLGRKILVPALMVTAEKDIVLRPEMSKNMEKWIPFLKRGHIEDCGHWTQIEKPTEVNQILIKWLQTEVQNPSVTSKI

recombinant rat mEH = molecular target: T4, recombinant rat mEH (Rattus norvegicus, UniProt P07687); assay: Inhibition of recombinant rat mEH; format: biochemical
T4 sequence (P07687 1-455): T1 sequence (P07687 1-455)
Protocol: (§2) The micosomal enzyme plays a significant role in the metabolism of xenobiotics such as polyaromatic toxicants. Additionally, polymorphism studies have underlined a potential role of this enzyme in relation to several diseases, such as emphysema, spontaneous abortion and several forms of cancer. Inhibition of recombinant rat and human mEH can be obtained using primary ureas, amides, and amines. For example, elaidamide, has a K1 of 70 nM for recombinant rat mEH.

[3] = test system: insect cell culture expressing rat mEH; assay: Insect cell culture expressing rat mEH, toxicity of epoxide-containing xenobiotics; format: cell-based
Protocol: as §2

Row | Structure (SMILES) | IC50 (Human sEH (HsEH)) [nM] | IC50 [2] [nM] | also measured
1 | O=C(NC1CCCCC1)NC1CCCCC1 [DCU, N,N′-dicyclohexylurea] |  |  | effect on blood pressure in WKY (WKY rats): unaffected; inhibition of mEH (mEH): does not inhibit mEH; effect on CYP epoxygenase or -hydroxylase activity [1]: no effect
2 | CCCCCCCCCCCCNC(=O)NC1CCCCC1 [N-cyclohexyl-N′-dodecylurea] |  |  | decrease in systolic blood pressure (SHR): 12±2 mm Hg and 12 mm Hg
3 | O=C(NC1CCCCC1)NC1CC2CCC1C2 (stereo not drawn) [compound 543] | 100 ± 10 | 50 ± 10 | 
4 | C[C@H](NC(=O)NC1CCCCC1)c1ccccc1 [compound 544] | 100 ± 10 | 50 ± 10 | 
5 | C[C@@H](NC(=O)NC1CCCCC1)c1ccccc1 [compound 545] | 3700 ± 300 | 50 ± 10 | 
6 | CC1CCCCC1NC(=O)NC1CCCCC1 (stereo not drawn) [compound 551] | 100 ± 10 | 50 ± 10 | 
7 | CCCCCCCCCCCNC(=O)NCCCC [compound 556] | 740 ± 70 | 200 ± 20 | 
8 | O=C(Nc1c2ccccc2nc2ccccc12)NC1CCCCC1 [compound 559] | 140 ± 10 | 80 ± 10 | 
9 | CCCCCCCCCCCCNC(=O)NC(C)(C)CC [compound 562] | 15000 ± 3000 | 500 ± 100 | 
10 | CCCCCCCC/C=C/CCCCCCCC(N)=O [elaidamide] |  |  | inhibition kinetics with mEH (recombinant rat mEH; non-covalent complex): apparent mix of competitive and non-competitive inhibition kinetics; Ki (recombinant rat mEH; read-out: K1 for recombinant rat mEH): 70 nM; effect on toxicity of epoxide-containing xenobiotics [3]: enhances the toxicity effects
